Measurements reported in US8436013B2, “Compounds and methods for treatment of alpha-1 antitrypsin deficiency” (University of Florida Research Foundation, Inc., priority 2007, dated 2013).
Entries after “also recorded” stand apart in the source; their conditions may differ.

Assays:
ATZ [1] = molecular target: T1, ATZ (Homo sapiens, UniProt P01009, E366K); test: Pulse-chase (35S labelling, anti-AAT immunoprecipitation) ATZ secretion in CHO cells; assay type: cell-based; conditions: CHO cells labeled with 35S, vs DMSO control
T1 construct: expressed in transfected cells; host or cells: CHO-ATZ cells
T1 sequence (P01009 25-418 E366K): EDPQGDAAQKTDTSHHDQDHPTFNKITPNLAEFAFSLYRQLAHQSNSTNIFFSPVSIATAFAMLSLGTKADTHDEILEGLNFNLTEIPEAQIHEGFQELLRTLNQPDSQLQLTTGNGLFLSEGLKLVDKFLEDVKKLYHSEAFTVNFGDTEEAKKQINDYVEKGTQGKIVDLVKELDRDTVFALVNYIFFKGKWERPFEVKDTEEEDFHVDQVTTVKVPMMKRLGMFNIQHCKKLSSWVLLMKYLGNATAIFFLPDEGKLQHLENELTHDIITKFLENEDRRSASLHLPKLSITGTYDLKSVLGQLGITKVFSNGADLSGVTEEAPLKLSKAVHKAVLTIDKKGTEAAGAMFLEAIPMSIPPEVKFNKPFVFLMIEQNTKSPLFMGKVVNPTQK
Text: FIG. 5. Polymer inhibitor (1,9-decadiene) increases ATZ secretion. The cells were labeled with ^35S and harvested at the indicated time points. The protein extracts were immunoprecipitated using anti-AAT antibody. The immunocomplexes were then resolved in PAGE gel. The intensity of AAT bands were then quantified and calculated. FIG. 5A is the cells treated with DMSO control; FIG. 5B represents result of cells with polymer inhibitor treatment. […] A non-denaturing gel was used to analyze cell extracts from compound-treated CHO ATZ cells.

[2] = system: transgenic mice carrying a human ATZ transgene; test: Serum AAT level (ELISA) in transgenic mice carrying a human ATZ transgene; assay type: in vivo; conditions: treated for two weeks
Protocol: FIG. 6. Compounds according to the invention can increase AAT secretion in transgenic animals. The animals were treated for two weeks. Serum AAT levels were determined by ELISA assay.
Two test compounds were administered to transgenic mice (four animals per group, including control) carrying a human ATZ transgene to determine whether the compounds are capable of increasing AAT secretion in a transgenic animal model. The animals were treated for two weeks. Serum AAT levels were determined by ELISA assay.

AAT-Z transgenic mice = test: Liver histology (PASD staining, inflammation) in AAT-Z transgenic mice; assay type: in vivo; conditions: i.p. injection for 7 days, vs control
Protocol: FIG. 7. Compounds according to the invention decrease AAT accumulation and reduce inflammation in liver cells compared to control. AAT-Z transgenic mice were treated by i.p. injection of a compound or control for 7 days, followed by collection of liver tissue.
Compounds according to the invention decrease AAT accumulation and reduce inflammation in liver cells compared to control. AAT-Z transgenic mice were treated by i.p. injection of a compound or control for 7 days, followed by collection of liver tissue.

ATZ [3] = molecular target: T1, ATZ; test: ATZ secretion from CHO-ATZ cells, ELISA of culture supernatant; assay type: cell-based; conditions: various concentrations, supernatants at 24, 48 and 72 hours, DMSO controls
Protocol: FIG. 3. Effects of small molecule compounds on AAT secretion in cells. The CHO-ATZ cells were treated with various concentrations of NCI compounds. The culture supernatants were harvested for ELISA analysis. The data represent the means from 4-separate experiments.
Compounds listed in Table 1 were obtained from NCI/DTP. The compounds were dissolved in DMSO. As the first step, the compounds were tested in CHO-ATZ cells. Various concentrations of the compounds were added to the cells. The supernatants were harvested at time points: 24, 48, and 72 hours. The samples were then used for ELISA assay for human AAT.
(§1) Compounds were used to treat CHO-ATZ cells at various concentrations. Cell supernatant was harvested at different time points. ELISA test was performed to determine the level of ATZ in the supernatant. The cells were also harvested for Western blot analysis.

ATZ [4] = molecular target: T1, ATZ; test: ATZ accumulation in treated cells, Western blot; assay type: cell-based; conditions: cells treated with polymer inhibitor vs controls
Protocol: FIG. 4. Polymer inhibitor (1,9-decadiene) reduces the ATZ accumulation in cells. Cells were treated with polymer inhibitor and harvested for Western blot analysis.
as §1
We then examined these two potentially effective inhibitors. The cells were treated by the inhibitors, followed by protein extraction and Western blot analysis.

[5] = system: human ATZ transgenic model; conditions: cited from earlier work

Row | Compound | ATZ secretion (pulse-chase) (ATZ [1]) | AAT serum level enhancement [2] | AAT accumulation in hepatocytes (PASD staining) (AAT-Z transgenic mice) | liver tissue inflammation (AAT-Z transgenic mice) | ATZ secretion (ELISA of supernatant) (ATZ [3]) | ATZ secretion (ELISA of supernatant) (ATZ [3]; listed as NSC 102789) | ATZ accumulation in cells (Western blot) (ATZ [4]) | ATZ secretion (ELISA of supernatant) (ATZ [3]; listed as NSC 21034) | blood levels of AAT [5]
1 | C=CCCCCCCC=C [1,9-decadiene] | increases the ATZ secretion in the supernatant | more than two-fold | decrease AAT accumulation in hepatocytes | reduced live tissue inflammation | effectively enhance ATZ secretion in the cells | appear to be effective for inhibition of ATZ secretion | reduced amount of ATZ; also recorded: effectively reduce the accumulation of ATZ in cells |  | 
2 | O=C(O)/C=C/c1cc2c(cc1[N+](=O)[O-])OCO2 [3,4-methylenedioxy-6-nitrocinnamic acid] |  | more than two-fold | decrease AAT accumulation in hepatocytes | reduced live tissue inflammation | effectively enhance ATZ secretion in the cells |  |  | appear to be effective for inhibition of ATZ secretion | 
3 | O=C(O)CCCc1ccccc1 [4-phenylbutyric acid] |  |  |  |  |  |  |  |  | can increase blood levels of AAT
